The results in this text go back to patent US5130485A, “N-hydroxy-N-(3-(2-substituted phenyl)prop-2-enyl)ureas and thioureas useful as 5-lipoxygenase inhibiting agents” (Eli Lilly and Company, priority 1991, dated 1992).

Structures are written as SMILES.

Experiment [1] relates to 5-LO. Nature of the experiment: In vivo inhibition of OA-induced increase in tracheal pressure in passively sensitized guinea pigs, oral dosing. Set-up: species or system guinea pig (male Hartley). The note with it: 2 hr, OA challenge; for inhibition in vivo at 30 mg/kg: Cavia porcellus, read-out: Inhibition of 5-LO In Vivo Percent Inhibition at 30 mg/kg, po, 2 hr. The method, then: Male Hartley guinea pigs (350-500 g) were passively sensitized against ovalbumin by i.p. administration of 0.3 ml of antiserum 2 days preceeding the experiment. Hyperimmune serum was prepared from actively sensitizing male guinea pigs conditioned with 2 mg of ovalbumin in 50% Complete Freund's Adjuvant i.p. on days 1 and 5. On day 21, the animals were bled and the serum collected and stored at -20° C. On the day of the experiment the passively sensitized guinea pigs were anesthetized with 35 to 40 mg/kg of pentobarbital sodium given i.p. The right jugular vein was cannulated with Tygon microbore tubing (o.d.=03) connected to a syringe for administration of selected drugs. Blood pressure was measured with a Statham pressure transducer connected to a Tygon catheter placed in the left carotid artery. The trachea was cannulated and each animal was ventilated with room air by means of a Harvard rodent respirator set to deliver a tidal volume of 1 ml/100 g body weight with a rate of 60 breaths/minute. Succinylcholine (5 mg/kg) was given i.v. to suppress spontaneous respiration. Intratracheal pressure, an index of total pulmonary resistance, was measured with a Statham pressure transducer connected to a T-tube on the tracheal cannula. […] Body temperature was maintained within normal limits by means of a Deltaphase isothermal pad. Prior to surgery, test compound or vehicle (PEG 400) was administered to each guinea pig by oral gavage and OA challenge was at designated times following oral dosing. The animals were pretreated i.v. with pyrilamine (5 mg/kg), propranolol (1 mg/kg) and indomethacin (10 mg/kg) 5 minutes prior to the OA challenge. OA-induced increase in tracheal pressure was expressed as a percentage of the maximal pressure obtained by clamping the trachea with a hemistat. To determine the effect of each drug, a % inhibition value was calculated from the vehicle and drug treated animals at each concentration tested.

Experiment [2] concerns 5-LO. Nature of the experiment: In vitro inhibition of 5-LO: Schultz-Dale reaction (ovalbumin-induced contraction of tracheal strips from actively sensitized guinea pigs). Particulars: Cavia porcellus; sensitized guinea-pig tracheal strips; antigen (OA) 30 ng/ml; 30 min preincubation; indomethacin 5 μM, pyrilamine 10 μM. It is filed as tissue-based, guinea pig (male Hartley). As to the method: Male, Hartley strain guinea-pigs (200-250 g) were actively sensitized by three injections of ovalbumin (OA, 10 mg/kg). The OA was administered intraperitoneally on Days 1 and 3 and subcutaneously on Day 5. In vitro experiments were performed 21-25 days later.
On the day of the experiment, guinea pigs were killed by asphyxiation with CO2 and the tracheas removed, cleaned of surrounding connective tissue and cut into sprial strips. Each strip was divided in half for paired experiments. Tissues were placed in 10 ml jacketed tissue baths maintained at 37° C. and attached with cotton thread to Grass force-displacement transducers (FT03C). […] Tracheal strips were bathed in modified Krebs' solution of the following composition (millimolar) NaCl, 118.2; KCl, 4.6; CaCl2.2H2 O, 2.5; MgSO4.7H2 O, 1.2; NaHCO3, 24.8; KH2 PO4, 1.0; and dextrose, 10.0. The buffer contained indomethacin (5 μM) which potentiated the contractions of the cysteinyl leukotrienes (LT) by removing the influence of cyclooxygenase products. The tissue baths were aerated with 95% O2 :5% CO2. Tracheal strips were placed under a resting tension of 2 g, and the tissues were allowed a minimal stabilization period of 60 minutes before undergoing experimentation. Bath fluid was changed at 15 minute intervals during the stabilization period.
Concentration-response curves
Cumulative concentration-response curves were obtained from tracheal strips by increasing the agonist concentration in the organ bath by half-log increments while the previous concentration remained in contact with the tissues van Rossum, Arch, Int. Pharmacodymn Ther., 143, 299-330 (1963). Agonist concentration was increased after reaching the plateau of the contraction elicited by the preceeding concentration. One concentration-response curve was obtained from each tissue. To minimize variability between tissues, contractile responses were expressed as a percentage of the maximal response obtained with carbachol (10 μM), added to the bath at the end of the concentration-response curve. Initially, tissues were challenged with carbachol (10 μM) following the 60 minute stabilization period to insure tissue viability. After recording the maximal response to the initial carbachol challenge, the tissues were washed and re-equilibrated for 60 minutes before starting the experimental protocol.
Determination of EC50 and % Inhibition
To evaluate the effects of novel 5-lipoxygenase inhibitors in the Schultz-Dale reaction, each compound was incubated with the tissues 30 minutes before starting the curves. Vehicle (DMSO) was given to the paired control tissue. Pyrilamine (10 μM) was added to all baths at this time to block the actions of released histamine. Responses obtained at the antigen concentration of 30 ng/ml were recorded in the absence and presence of drug and percent inhibition was calculated for each pair of tissues. IC50 values were determined by linear regression.
LT or carbachol concentration-response curves were used to determine specificity of the agent as a 5-lipoxygenase inhibitor. In these experiments the test compound was incubated as described above. EC50 values, which represent the molar concentration of agonist required to induce 50% of maximal response, was determined by linear regression. Differences in EC50 values, in the presence and absence of test compound were analyzed by Student's t-test with P<0.05 regarded as significant.

Turning to `NC(=O)N(O)CC=Cc1ccccc1SCC1CC1` [Example 6, N-hydroxy-N-[3-[2-(cyclopropylmethylthio)phenyl]-prop-2-enyl]urea], in experiment [1], the inhibition in vivo at 30 mg/kg was determined as 75%. In addition, in experiment [2], the concentration for half-maximal inhibition (IC50) (commonly the concentration needed to halve the response being measured) worked out at 620 nM.
Taken in the same sequence, the figures for `C#CCSc1ccccc1C=CCN(O)C(N)=O` [Example 1, N-hydroxy-N-[3-[2-(2-propynylthio)phenyl]prop-2-enyl]urea] were 78% and 2100 nM.
The corresponding values for `C#CCCSc1ccccc1C=CCN(O)C(N)=O` [Example 2, N-hydroxy-N-[3-[2-(3-butynylthio)phenyl]prop-2-enyl]urea] are 50% and 1000 nM.
Regarding `CC#CCSc1ccccc1C=CCN(O)C(N)=O` [Example 3, N-hydroxy-N-[3-[2-(2-butynylthio)phenyl]prop-2-enyl]urea], in experiment [1] (10 mg/kg (footnote a)), the “Inhibition of 5-LO In Vivo Percent Inhibition (dose of 10 mg/kg)” value amounted to 30%. In addition, in experiment [2], the IC50 is 600 nM.
For the compound `C#CCOc1ccccc1C=CCN(O)C(N)=O` [Example 7, N-hydroxy-N-[3-[2-(2-propynyloxy)phenyl]prop-2-enyl]urea], the inhibition in vivo at 30 mg/kg in experiment [1] was 93%. Moreover, in experiment [2], the IC50 is 2400 nM.
Taken in the same sequence, the figures for `NC(=O)N(O)CC=Cc1ccccc1SCC1CCCCC1` [Example 5, N-hydroxy-N-[3-[2-(cyclohexylmethylthio)phenyl]-prop-2-enyl]urea] were 76% and 1200 nM.
The corresponding values for `C=CCCSc1ccccc1C=CCN(O)C(N)=O` [Example 4, N-hydroxy-N-[3-[2-(3-butenylthio)phenyl]-prop-2-enyl]urea] are 81% and 390 nM.
Taken in the same sequence, the figures for `C#CCSc1c(F)cccc1C=CCN(O)C(N)=O` [Example 9, N-hydroxy-N-[3-[3-fluoro-2-(2-propynylthio)phenyl]prop-2-enyl]urea] were 93% and 1000 nM.
On to `C#CCSc1ccccc1C=C(C)CN(O)C(N)=O` [Example 8, N-hydroxy-N-[2-methyl-3-[2-(2-propynylthio)phenyl]prop-2-enyl]urea], for which the inhibition in vivo at 30 mg/kg in experiment [1] was determined as 51%. In experiment [2], the IC50 is 1800 nM.
